Measured values: patent US10393730B2, “Energy malnutrition evaluation for liver disease test subject” (OTSUKA PHARMACEUTICAL CO., LTD., priority 2014, dated 2019)

Tests used:
[1] = non-fasting period and fasting period, control group versus liver cirrhosis model group, 2 mL/kg i.v., 0-120 minutes
Protocol: CCl4 (olive oil: CCl4=1:1) was administered subcutaneously to the dorsal regions of male SD rats (10 weeks of age: n=3) in an amount of 2 mL/kg twice a week for 12 weeks, thereby creating liver cirrhosis model rats. With a biogas analysis device (product name: Oxymax, Columbus Instruments), respiratory quotient and energy consumption of untreated rats (control group) and liver cirrhosis model rats (liver cirrhosis model group) were measured and calculated according to the instructions of the device.
Further, both the untreated rats and the liver cirrhosis model rats were fed from 19:00 on Day 1 of the test to 13:00 on Day 3, and were fasted from 13:00 on Day 3 to 13:00 on Day 4, as shown in FIG. 1 shown later. During the non-fasting period, the rats were allowed free access to feed (product name: CRF-1, Oriental Yeast Co., Ltd.). […]
The above-prepared ^13C-palmitic acid-containing composition was individually intravenously administered to the liver cirrhosis model rats and untreated rats prepared in the above Reference Example in an amount of 2 mL/kg (n=3). […] Expired air was collected at time points between before administration (0 minutes) to 120 minutes after the administration of ^13C-palmitic acid-containing composition. Δ^13C(‰) was measured and determined using an expired air analysis mass spectrometer (ABCA: product of Sercon).

[2] = design: species or system male SD rats (liver cirrhosis model rats and untreated rats); conditions: rat, in vivo, iv
Protocol: U-^13C-glucose (MW: 186, Cambridge Isotope Laboratories, Inc.) was dissolved in a physiological saline solution at a concentration of 50 μmol/ml, thereby preparing a ^13C-glucose-containing composition.

SMILES	expired air reaction (Δ^13C(‰)) [1]	expired air reaction (Δ^13C(‰)), day versus night [2]
CCCCCCCCCCCCCCC[13C](=O)[O-].[Na+] [1-^13C-sodium palmitate]	showed similar transitions in the control group and the liver cirrhosis model group	–
OC[C@H]1OC(O)[C@H](O)[C@@H](O)[C@@H]1O (some centres unmarked) [^13C-glucose-containing composition, U-^13C-glucose]	–	a significant difference in the expired air reaction (Δ^13C(‰)) was not observed between day and night
